Results on 21 molecules are retold here after ChEMBL document CHEMBL1130030, “Tyrosine kinase inhibitors. 11. Soluble analogues of pyrrolo- and pyrazoloquinazolines as epidermal growth factor receptor inhibitors: synthesis, biological evaluation, and modeling of the mode of binding” (J Med Chem, 1997).

The target of test [1] is T1, Epidermal growth factor receptor (Homo sapiens, UniProt P00533). Description: Inhibition of the phosphorylation of a random polyglutamic acid/tyrosine copolymer by human epidermal growth factor receptor(EGFR) prepared from human A431 carcinoma cells.
Test [2] concerns the target T1, Epidermal growth factor receptor. Put plainly: Inhibition of autophosphorylation of epidermal growth factor receptor prepared from human A431 carcinoma cells.

SMILES strings stand for the structures.

T1 sequence (P00533 whole entry): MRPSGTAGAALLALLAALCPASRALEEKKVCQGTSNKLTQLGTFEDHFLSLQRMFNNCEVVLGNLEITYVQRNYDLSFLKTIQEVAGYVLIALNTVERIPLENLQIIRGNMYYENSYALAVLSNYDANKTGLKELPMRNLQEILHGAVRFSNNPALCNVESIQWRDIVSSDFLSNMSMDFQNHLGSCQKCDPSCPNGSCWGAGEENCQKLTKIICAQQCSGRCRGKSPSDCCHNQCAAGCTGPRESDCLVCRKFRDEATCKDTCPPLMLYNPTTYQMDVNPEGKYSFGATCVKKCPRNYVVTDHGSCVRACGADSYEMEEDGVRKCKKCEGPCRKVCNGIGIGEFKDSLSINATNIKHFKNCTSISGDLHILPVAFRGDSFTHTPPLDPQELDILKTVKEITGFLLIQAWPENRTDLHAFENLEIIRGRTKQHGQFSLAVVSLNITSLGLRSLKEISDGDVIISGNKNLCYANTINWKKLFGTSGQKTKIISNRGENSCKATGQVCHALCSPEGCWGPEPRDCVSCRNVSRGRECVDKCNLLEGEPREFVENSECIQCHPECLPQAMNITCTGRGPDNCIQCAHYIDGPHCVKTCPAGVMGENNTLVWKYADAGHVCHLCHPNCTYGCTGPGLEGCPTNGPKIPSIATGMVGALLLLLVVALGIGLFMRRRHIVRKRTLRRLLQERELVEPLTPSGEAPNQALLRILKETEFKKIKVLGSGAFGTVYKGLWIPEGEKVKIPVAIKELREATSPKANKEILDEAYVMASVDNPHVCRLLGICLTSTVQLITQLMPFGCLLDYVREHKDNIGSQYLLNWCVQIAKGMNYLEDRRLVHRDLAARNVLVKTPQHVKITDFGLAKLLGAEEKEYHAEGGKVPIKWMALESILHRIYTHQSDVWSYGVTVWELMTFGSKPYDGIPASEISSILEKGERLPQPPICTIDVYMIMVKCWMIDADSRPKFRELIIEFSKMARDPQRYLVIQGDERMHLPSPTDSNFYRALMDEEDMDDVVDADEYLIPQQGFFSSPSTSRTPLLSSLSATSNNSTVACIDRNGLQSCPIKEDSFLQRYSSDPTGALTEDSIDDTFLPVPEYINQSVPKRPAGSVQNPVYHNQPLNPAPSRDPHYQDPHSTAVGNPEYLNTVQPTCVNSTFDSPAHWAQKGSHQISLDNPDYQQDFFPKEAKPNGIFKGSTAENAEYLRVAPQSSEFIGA

Regarding `Brc1cccc(Nc2nccc3ccccc23)c1`, the half-maximal inhibitory concentration (IC50) in test [1] was greater than 100000 nM. The molecule `Brc1cccc(Nc2ncnc3cc4[nH]ncc4cc23)c1` came in with an IC50 in test [2] of 20 nM.

On to `Brc1cccc(Nc2ncnc3cc4[nH]ccc4cc23)c1`, for which the 50% inhibitory concentration (IC50) in test [2] came to 22 nM. On to `OCC(O)Cn1ncc2cc3c(Nc4cccc(Br)c4)ncnc3cc21` (configuration not stated), for which the half-maximal inhibitory concentration (IC50) in test [1] amounted to 12 nM; in test [2], 318 nM. The matching figures for `Brc1cccc(Nc2ncnc3cc4c(ccn4CCN4CCOCC4)cc23)c1`: 3.7 nM and 16 nM. In test [1], `COc1cccc2c(Nc3cccc(Br)c3)ncnc12` gave a 50% inhibitory concentration (IC50) greater than 10000 nM.

Turning to `Brc1cccc(Nc2ncnc3cc4[nH]cc(CN5CCOCC5)c4cc23)c1`, the 50% inhibitory concentration (IC50) in test [1] came to 4.8 nM; in test [2] it was 9.6 nM. The matching figures for `Brc1cccc(Nc2ncnc3cc4c(cnn4CCCN4CCOCC4)cc23)c1`: 8.8 nM and 77 nM.

`Cc1nc(Nc2cccc(Br)c2)c2ccccc2n1` returned a 50% inhibitory concentration (IC50) in test [1] greater than 10000 nM. As for `O=C(O)Cn1ccc2cc3c(Nc4cccc(Br)c4)ncnc3cc21`, the values for the IC50 in test [1] and in test [2] were 5.1 nM and 1780 nM, respectively. For the molecule `CN(C)CCN(C)Cc1c[nH]c2cc3ncnc(Nc4cccc(Br)c4)c3cc12`, the half-inhibitory concentration (IC50) in test [1] is 7.5 nM; in test [2] it was 81 nM. `OCC(O)Cn1ccc2cc3c(Nc4cccc(Br)c4)ncnc3cc21` (configuration not stated): the IC50 turned out to be 1.6 nM in test [1] and 49 nM in test [2]. In the case of `CN(C)CCCn1ccc2cc3c(Nc4cccc(Br)c4)ncnc3cc21`, the IC50 in test [1] was 21 nM; in test [2], 230 nM. Taken in the same sequence, the figures for `CN(C)CCn1ncc2cc3c(Nc4cccc(Br)c4)ncnc3cc21` were 40 nM and 262 nM.

On to `COC(=O)CN(C)Cc1c[nH]c2cc3ncnc(Nc4cccc(Br)c4)c3cc12`, for which the half-inhibitory concentration (IC50) in test [1] came to 3.4 nM; in test [2], 9.6 nM.

Take `OCCN(CCO)Cc1c[nH]c2cc3ncnc(Nc4cccc(Br)c4)c3cc12`: the IC50 in test [1] is 3.5 nM; in test [2], 135 nM. For `CN(C)CCn1ccc2cc3c(Nc4cccc(Br)c4)ncnc3cc21`, the values for the IC50 in test [1] and in test [2] were 41 nM and 145 nM, respectively. Taken in the same sequence, the figures for `Cn1ccc2cc3c(Nc4cccc(Br)c4)ncnc3cc21` were 0.8 nM and 22 nM. For `CN(CC(=O)O)Cc1c[nH]c2cc3ncnc(Nc4cccc(Br)c4)c3cc12`, the half-inhibitory concentration (IC50) in test [1] came to 0.72 nM; in test [2], 584 nM.

In the case of `CN(C)Cc1c[nH]c2cc3ncnc(Nc4cccc(Br)c4)c3cc12`, the IC50 in test [1] stood at 2.6 nM; in test [2] it was 9.7 nM. Taken in the same sequence, the figures for `Cn1ncc2cc3c(Nc4cccc(Br)c4)ncnc3cc21` were 0.37 nM and 13 nM.
